# Reference: patent publication US6271238A, “Acetamide derivatives and protease inhibitors” (Nippon Kayaku Kabushiki Kaisha, priority 1996, dated 2001)
# Where a name gives a salt, the structure may show the parent alone.
# Key:
# Type in all cases: biochemical
# [1] = target: T1, human chymase (Homo sapiens, UniProt P23946); assay: Inhibitory activity on human chymase (angiotensin I as substrate); settings: for IC50: substrate angiotensin I, pH 8.0, 37° C., 60 min, read-out: Human Chymase (IC50: nM), 50% inhibitory concentration
# T1 construct: 60 g human tonsils were finely divided by scissors and a scalpel; from tissue; host or cells: human tonsils
# T1 sequence (P23946 22-247): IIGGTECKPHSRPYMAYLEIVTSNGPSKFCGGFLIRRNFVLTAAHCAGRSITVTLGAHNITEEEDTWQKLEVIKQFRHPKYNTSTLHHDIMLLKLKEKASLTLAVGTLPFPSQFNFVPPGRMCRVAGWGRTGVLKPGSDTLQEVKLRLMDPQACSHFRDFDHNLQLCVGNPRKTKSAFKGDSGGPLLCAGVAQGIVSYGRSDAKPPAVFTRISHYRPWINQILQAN
# Description: It is known that chymase is present in tissues of various animals, and its isolation and purification methods are described in Anal. Biochem., 137, 449 (1984) and FEBS Letters, 323, 119 (1993). In the present invention, chymase was purified by the methods described in these literatures, and the present compounds were examined for inhibitory activity on chymase, inhibitory action on activation of mast cells and eosinophils, and pharmacological action in animals. Hereinafter, specific methods are described. 50 g rat tongue was finely divided by scissors and a scalpel, suspended in 0.1 M phosphate buffer (pH 8.0), and disrupted by a Polytron homogenizer for 5 minutes to prepare a crude chymase enzyme solution. […] The supernatant was applied to an octyl Sepharose 4B column (40×100 mm) previously equilibrated with 0.1 M phosphate buffer (pH 8.0) containing 2 M sodium chloride and 5% ammonium sulfate, and the protein was eluted with a linear concentration gradient of from 2 M to 0 M sodium chloride. An active fraction decomposing succinyl leucyl leucyl valyl tyrosyl methylcumarylamide (hereinafter referred to as the synthetic chymase substrate, a product of Peptide Kenkyusho) was recovered and concentrated and this product was used as a purified rat chymase in the following activity measurement. (B) Preparation of human chymase 60 g human tonsils were finely divided by scissors and a scalpel, suspended in 0.1 M phosphate buffer (pH 8.0), and A-disrupted by a Polytron homogenizer for 5 minutes to prepare a crude chymase enzyme solution. It was centrifuged at 22000×g for 30 minutes, and the precipitates were used as a chymase enzyme fraction. […] The supernatant was concentrated by an ultrafiltration membrane, then applied to […] column (6.0×300 mm), and eluted with 0.1 M phosphate buffer (pH 8.0). An active fraction decomposing the synthetic chymase substrate was recovered and concentrated and this product was used as a purified human chymase in the following activity measurement. (D) Measurement of inhibitory activity on chymase (b) Measurement using angiotensin I as substrate The inhibitory activity on the human chymase and dog chymase was measured using angiotensin I (Peptide Kenkyusho) as substrate besides the above synthetic substrate. […] After the end of the reaction, produced angiotensin II was immediately measured by high performance liquid chromatography to determine the activity of the chymase to calculate 50% inhibitory concentration (IC50: nM). The test was conducted several times. Chymase was prepared for each test in the manner described above. The compounds examined were compounds prepared in the above-described examples. […] 50% Inhibitory concentration (IC50: nM) of each compound toward rat chymase, dog […] human […] Substrate: Succinyl leucyl leucyl valyl tyrosyl methylcoumarylamide (for rat […] angiotensin I (for human and dog chymase)
# [2] = target: T2, Human cathepsin G (Homo sapiens, UniProt P08311); assay: Inhibitory activity on proteases other than chymase: human cathepsin G; settings: succinyl alanyl alanyl propyl phenylmethylcoumarylamide substrate; read-out: 50% Inhibitory concentration toward Human cathepsin G
# T2 sequence (P08311 21-255): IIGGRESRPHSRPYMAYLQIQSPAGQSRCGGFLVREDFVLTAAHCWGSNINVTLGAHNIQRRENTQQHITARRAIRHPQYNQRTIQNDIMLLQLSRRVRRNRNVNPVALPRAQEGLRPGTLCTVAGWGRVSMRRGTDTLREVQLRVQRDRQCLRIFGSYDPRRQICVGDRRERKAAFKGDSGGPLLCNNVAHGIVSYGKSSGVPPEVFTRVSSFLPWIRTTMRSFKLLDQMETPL
# Description: (§1) (E) Measurement of inhibitory activity on proteases other than chymase
# (§2) The inhibitory activity of the present compounds on human elastase, human cathepsin G, human urokinase, human thrombin, human plasmin, and human factor Xa was determined using their corresponding synthetic substrates in the same manner as for chymase. All the above proteases were those commercially available from Boehringer Mannheim or purified by a combination of known methods. The synthetic substrates were those produced by Peptide Renkyusho. The synthetic substrates for the respective proteases are as follows.
# Human cathepsin G Succinyl alanyl alanyl propyl phenylmethyl-
# (§3) The test was conducted several times. Chymase was prepared for each test in the manner described above. The compounds examined were compounds prepared in the above-described examples.
# [3] = target: Human urokinase (Homo sapiens, UniProt P00749); assay: Inhibitory activity on proteases other than chymase: human urokinase; settings: pyridyl glycyl arginyl methylcoumarylamide substrate; read-out: 50% Inhibitory concentration toward Human urokinase
# Description: as §2, with “(E) Measurement of inhibitory activity on proteases other than chymase The inhibitory” for “The inhibitory”, “as follows. |Human urokinase Pyridyl glycyl arginyl methylcoumarylamide The test was conducted several times. Chymase was prepared for each test in the manner described above. The compounds examined were compounds prepared in the above-described examples.” for “as follows.”
# [4] = target: T3, Human thrombin (Homo sapiens, UniProt P00734); assay: Inhibitory activity on proteases other than chymase: human thrombin
# T3 construct: human thrombin
# Description: as §1, §2
# Human thrombin Benzyloxycarbonyl asparginyl prolyl arginyl
# as §3
# [5] = target: T4, Human plasmin (Homo sapiens, UniProt P00747); assay: Inhibitory activity on proteases other than chymase: human plasmin; settings: benzyloxycarbonyl valyl leucyl lyzyl methylcoumarylamide substrate; read-out: 50% Inhibitory concentration toward Human plasmin
# T4 construct: human plasmin
# T4 sequence (P00747 581-810 limits assumed): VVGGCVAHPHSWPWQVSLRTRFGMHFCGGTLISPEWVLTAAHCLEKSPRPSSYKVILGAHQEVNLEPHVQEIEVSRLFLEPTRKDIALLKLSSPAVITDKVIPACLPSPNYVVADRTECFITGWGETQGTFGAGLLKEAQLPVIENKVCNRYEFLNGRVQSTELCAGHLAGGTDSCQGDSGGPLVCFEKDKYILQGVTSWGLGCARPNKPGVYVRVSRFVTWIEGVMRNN
# T4 sequence (P00747 97-580 partner limits assumed): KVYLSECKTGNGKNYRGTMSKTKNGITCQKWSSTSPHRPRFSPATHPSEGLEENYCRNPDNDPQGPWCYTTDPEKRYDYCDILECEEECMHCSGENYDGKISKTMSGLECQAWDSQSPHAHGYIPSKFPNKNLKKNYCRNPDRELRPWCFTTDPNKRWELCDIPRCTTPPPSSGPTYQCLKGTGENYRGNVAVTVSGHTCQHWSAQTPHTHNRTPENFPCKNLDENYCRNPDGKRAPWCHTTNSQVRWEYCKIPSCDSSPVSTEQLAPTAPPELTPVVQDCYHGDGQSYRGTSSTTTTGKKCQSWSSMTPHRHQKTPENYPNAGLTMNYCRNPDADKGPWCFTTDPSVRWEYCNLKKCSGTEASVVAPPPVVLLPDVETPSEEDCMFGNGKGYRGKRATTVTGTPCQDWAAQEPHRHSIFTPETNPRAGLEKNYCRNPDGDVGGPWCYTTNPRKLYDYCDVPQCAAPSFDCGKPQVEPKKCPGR
# Description: as §1, §2
# Human plasmin Benzyloxycarbonyl valyl leucyl lyzyl
# as §3
# [6] = target: T5, Human factor Xa (Homo sapiens, UniProt P00742); assay: Inhibitory activity on proteases other than chymase: human factor Xa
# T5 construct: human factor Xa
# T5 sequence (P00742 235-488 limits assumed): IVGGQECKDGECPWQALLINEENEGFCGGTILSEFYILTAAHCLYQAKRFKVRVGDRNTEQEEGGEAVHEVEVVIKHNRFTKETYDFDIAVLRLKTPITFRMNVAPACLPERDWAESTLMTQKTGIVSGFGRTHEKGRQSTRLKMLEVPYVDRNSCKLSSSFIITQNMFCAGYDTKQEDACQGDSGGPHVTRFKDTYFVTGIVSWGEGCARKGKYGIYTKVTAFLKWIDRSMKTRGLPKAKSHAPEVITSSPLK
# T5 sequence (P00742 41-179 partner limits assumed): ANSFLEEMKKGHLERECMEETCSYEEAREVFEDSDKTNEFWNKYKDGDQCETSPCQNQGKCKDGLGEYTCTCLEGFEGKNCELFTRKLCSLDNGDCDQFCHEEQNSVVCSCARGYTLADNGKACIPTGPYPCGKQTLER
# Description: as §1, §2
# Human factor Xa Phenylmethyloxycarbonyl pyridyl glycyl arginyl
# as §3
# [7] = test system: other human proteases; assay: Inhibitory activity on other human proteases (summary)
# Description: as §1, §2, §3
SMILES,IC50 [1] [nM],IC50 [2] [nM],IC50 [3] [nM],IC50 [4] [nM],IC50 [5] [nM],IC50 [6] [nM],"inhibitory activity on human chymase, in words [1]","inhibitory activity on other human proteases, in words [7]"
Nc1cnc(-c2ccccc2)n(CC(=O)NC(Cc2ccccc2)C(=O)C(=O)CCCc2ccccc2)c1=O (centres unmarked) [Compound 40],190,> 10000,> 10000,> 10000,> 10000,> 10000,,
CCCCC(=O)C(=O)C(Cc1ccccc1)NC(=O)Cn1c(-c2ccccc2)ncc(N)c1=O (centres unmarked) [Compound 44],146,,,,,,,
"CC(=O)C(=O)C(Cc1cccc(F)c1)NC(=O)Cn1c(-c2ccccc2)ncc(N)c1=O (centres unmarked) [Compound 52, 2-(5-Amino-6-oxo-2-phenyl-1,6-dihydropyrimidine-1-yl)-N-{1-(3-fluorophenyl)methyl-2,3-dioxo}butylacetamide]",120,350,> 10000,> 10000,> 10000,> 10000,,
CCOC(=O)CCCC(=O)C(=O)C(Cc1cccc(F)c1)NC(=O)Cn1c(-c2ccccc2)ncc(N)c1=O (centres unmarked) [Compound 54],36,,,,,,strong inhibitory activity on human chymase,no inhibitory activity on other human proteases
"CC(C)(C)OC(=O)Nc1cnc(-c2ccccc2)n(CC(=O)NC(Cc2ccccc2)C(=O)C(=O)CCCn2ccccc2=O)c1=O (centres unmarked) [Compound 72, 2-(5-t-Butyloxycarbonylamino-6-oxo-2-phenyl-1,6-dihydropyrimidine-1-yl)-N-{2,3-dioxo-6-(2-oxo-1,2-dihydropyridine-1-yl)-1-phenylmethyl}hexylacetamide]",90,540,> 10000,> 10000,> 10000,> 10000,strong inhibitory activity on human chymase,no inhibitory activity on other human proteases
"Nc1cnc(-c2ccccc2)n(CC(=O)NC(Cc2ccccc2)C(=O)C(=O)CCCn2ccccc2=O)c1=O (centres unmarked) [Compound 73, 2-(5-Amino-6-oxo-2-phenyl-1,6-dihydropyrimidine-1-yl)-N-{2,3-dioxo-1-phenylmethyl-6-(2-oxo-1,2-dihydropyridine-1-yl)}hexylacetamide hydrochloride]",46,,,,,,strong inhibitory activity on human chymase,no inhibitory activity on other human proteases
"CC(C)(C)OC(=O)Nc1cnc(-c2ccccc2)n(CC(=O)NC(Cc2ccccc2)C(=O)C(=O)CCCOc2ccccn2)c1=O (centres unmarked) [Compound 74, 2-(5-t-Butyloxycarbonylamino-6-oxo-2-phenyl-1,6-dihydropyrimidine-1-yl)-N-{2,3-dioxo-6-(2-pyridyloxy)-1-phenylmethyl}hexylacetamide]",11,90,> 10000,> 10000,> 10000,> 10000,strong inhibitory activity on human chymase,no inhibitory activity on other human proteases
"O=CNc1cnc(-c2ccccc2)n(CC(=O)NC(Cc2ccccc2)C(=O)C(=O)CCCOc2ccccn2)c1=O (centres unmarked) [Compound 79, 2-(5-Formylamino-6-oxo-2-phenyl-1,6-dihydropyrimidine-1-yl)-N-{2,3-dioxo-1-phenylmethyl-6-(2-pyridyloxy)}hexylacetamide]",2.4,420,> 10000,> 10000,> 10000,> 10000,strong inhibitory activity on human chymase,no inhibitory activity on other human proteases
"CC(=O)Nc1cnc(-c2ccccc2)n(CC(=O)NC(Cc2ccccc2)C(=O)C(=O)CCCOc2ccccn2)c1=O (centres unmarked) [Compound 80, 2-(5-Acetylamino-6-oxo-2-phenyl-1,6-dihydropyrimidine1-yl)-N-{2,3-dioxo-1-phenylmethyl-6-(-2-pyridyloxy)}hexyl-acetamide]",0.9,18,> 10000,> 10000,> 10000,> 10000,strong inhibitory activity on human chymase,no inhibitory activity on other human proteases
"O=C(Cn1c(-c2ccccc2)ncc(NS(=O)(=O)NCc2ccccc2)c1=O)NC(Cc1ccccc1)C(=O)C(=O)CCCOc1ccccn1 (centres unmarked) [Compound 82, 2-(5-Benzylaminosulfonylamino-6-oxo-2-phenyl-1,6-dihydropyrimidine-1-yl)-N-{2,3-dioxo-1-phenylmethyl-6-(2-pyridyloxy)}hexylacetamide]",0.74,19,> 10000,> 10000,> 10000,> 10000,strong inhibitory activity on human chymase,no inhibitory activity on other human proteases
